“Also recorded” adds a separate entry of the source.
Legend:
BALB/c mice [1] = assay: Hematocrit in mice IV injected with 3 μg TransIT-complexed EPO mRNA; type: in vivo
Procedure: (§1) To confirm in vitro data, female BALB/c mice from Jackson Laboratory (Bar Harbor, ME, USA) at the age of eight to ten weeks were used for in vivo experiment in accordance with federal policies on animal research (Ethics approval number: G18-12-027). Mice (n=3/group) were injected intravenously (i.v.) with 3 μg TransIT-complexed (Mirus Bio) EPO mRNAs in a final volume of 200 μL Dulbecco's modified Eagle medium (DMEM). Mice used as controls were injected with TransIT-reagent diluted in DMEM but without RNA. Mice were injected with EPO mRNA complexed with TransIT-reagent and EPO levels in plasma were measured using ELISA (FIG. 8A). Hematocrit was measured from 18 μl of blood that was collected at the indicated times using centrifugation in Drummond microcaps glass capillary tubes (20 μl volume, Merck, Germany) as described (20) (FIG. 8B). After determination of the hematocrit, capillary tubes were snapped open, and the plasma was collected to measure EPO levels and analyzed for mouse Erythropoietin DuoSet ELISA kit (R&D Systems) according to the manufacturer's instructions. […] EPO RNA containing m1Ψ translated two-fold more than U-containing mRNA at each time points (FIG. 8A). Both compound I′-1 and compound I′-6 are suitable for translation of the encoded protein and each cap analog can be used for synthesizing of non-replicating functional mRNAs (FIG. 8A, 8B).
(§2) In each in vivo experiment in order to measure the translational efficiency and to determine the functionality of EPO mRNA capped with I′-1, I′-2, I′-3, I′-5, I′-6, I′-9, I′-12, I′-13, I′-16, CC114, and CC413 in vivo, female BALB/c mice from Jackson Laboratory (Bar Harbor, ME, USA) at the age of eight to ten weeks were used for in accordance with federal policies on animal research (Ethics approval number: G19-12-074). In each case, mice (n=3/group) were injected intravenously (i.v.) with 3 μg TransIT-complexed (Mirus Bio) EPO mRNAs in a final volume of 200 μL Dulbecco's modified Eagle medium (DMEM). Mice used as controls were injected with TransIT-reagent diluted in DMEM but without RNA. To measure hematocrits and EPO levels in the individual mice that were injected with EPO mRNA capped with I′-6, I′-1, CC114, and CC413 and complexed with TransIT-reagent, 18 μL of blood was collected at the indicated times (FIG. 8B) and centrifuged in Drummond microcaps glass capillary tubes (20 μl volume, Merck, Germany) as described (19). After determination of the hematocrit, capillary tubes were snapped open, and the plasma was collected to measure EPO levels and analyzed for mouse Erythropoietin DuoSet ELISA kit (R&D Systems) according to the manufacturer's instructions. […] EPO RNA containing m1Ψ modifications translated 2-3-fold, 5-fold, and 10-fold more than U-containing mRNAs at 6-24, 48 and 72 hours after injections, respectively. (FIG. 8A). […] To address translation of I′-6-capped mRNA in human primary hepatocytes, EPO level was measured from supernatants transfected using 0.1 μg/well TransIT-formulated I′-6- or CC114-capped uRNA (FIG. 13).

BALB/c mice [2] = assay: Plasma EPO in mice IV injected with 3 μg TransIT-complexed EPO mRNA (ELISA); type: in vivo
Procedure: as §1, §2
To this end, we generated U-containing as well as m1Ψ-modified EPO RNA capped with cap analogs which belong to either the non-ARCA (I′-13) or ARCA (I′-6) classes. Moreover, the latter ones contain 2′-OMe (I′-5) or 3′-OMe (I′-6) at the ribose of the m7G moiety. Three μg of TransIT-complexed EPO mRNA capped with nucleoside modification-containing NeoCaps I′-13, I′-5 and I′-6 cap analogs were injected into mice intravenously. After that EPO level of plasma collected from mice was measured at 6, 24 and 48 hours after administration to compare the translational activity of mRNA capped with NeoCaps with U-containing or m1Ψ-modified mRNA capped with non-modified ARCA 3′OMe I′-1.
Plasma EPO level of mice injected with 3 μg of each TransIT-complexed mRNA was determined using murine EPO-specific ELISA at 6, 24, 48 and 72 hours after intravenous administration. […]

[3] = system: human primary hepatocytes; assay: EPO secretion in human primary hepatocytes transfected with TransIT-EPO mRNA (ELISA); type: cell-based
Procedure: To measure the translational efficiency of EPO mRNA capped with compound I′-1, compound I′-6, CC114, and CC413 in vitro, human primary hepatocytes were seeded into 96-well plates at a density of 2.5×10^4 cells per well and were transfected with mRNA samples (0.1 μg) complexed with TransIT reagent (Mirus Bio, Madison, WI, USA) in a final volume of 200 μL in InVitroGRO CP Medium (Sigma-Aldrich) supplemented with Thorpedo Antibiotic Mix (Sigma-Aldrich). To quantify EPO levels, the supernatant was collected at 1, 2, 3, 4, 5 and 6 day after transfection and EPO levels were analyzed by mouse Erythropoietin DuoSet ELISA kit (R&D Systems, Minneapolis, MN, USA) according to the manufacturer's instructions.
as §2
To test if various uridine (U) or pseudouridine (Ψ) derivatives of cap analogues can improve translation in human primary hepatocytes, we first measured EPO secretion after application of EPO-encoding Ψ-mRNA capped with compounds described herein analog bearing pseudouridine (I′-3) or CC413 (no modification). […] In addition, all tested modification bearing caps led to increase in EPO secretion at 24 h and 48 h when compared to the unmodified I′-1 (FIG. 16).

## COC1C(OP(=O)(O)OC[C@H]2O[C@@H](c3cn(C)c(=O)[nH]c3=O)C(O)C2O)[C@@H](COP(=O)(O)OP(=O)([O-])OP(=O)(O)OC[C@H]2O[C@@H](n3c[n+](C)c4c(O)nc(N)nc43)C(O)C2OC)O[C@H]1n1cnc2c(N)ncnc21 (stereo partly shown) [I′-6, m^7G(^3′-OMe)pppA(2′-OMe)pm^1Ψ]
BALB/c mice [1]; 21 days after administration
  hematocrit value at 21 days compared with CC413-capped mRNA: at the same level as the values of D7 and D14
BALB/c mice [1]; D14 after injection
  decrease of hematocrit values from D14: not observed
BALB/c mice [1]; up to day 21 after injection
  hematocrit values: very high and further increased after day 14; also recorded: remained very high level
BALB/c mice [2]; after IV injection
  24-hour EPO values compared with 6-hour values: higher than the 6-hour values
BALB/c mice [2]; later time points
  translation (plasma EPO) relative to CC413: 2- to 3 fold
BALB/c mice [2]; m1Ψ-modified mRNA capped with I′-6 vs U-containing mRNA capped with I′-1, each time point
  translation (EPO level) relative to I′-1: 2-3 fold
BALB/c mice [2]; m1Ψ-modified mRNA, 6-24 hours after administration
  translation relative to unmodified I′-1: 2-3 fold
BALB/c mice [2]; m1Ψ-modified mRNA, 48-72 hours after administration
  translation relative to unmodified I′-1: 4-5 fold
BALB/c mice [2]; m1Ψ-modified mRNA, 48 and 72 h after injection, respectively
  translation / plasma EPO level relative to CC413: 1.5-3 fold
BALB/c mice [2]; m1Ψ-modified mRNA, same capping efficiency
  performance compared with cap analogs with other modification: surpasses the performance of other cap analogs
BALB/c mice [2]; regardless of the RNA modification
  translation of ARCA analogs compared to non-ARCA caps CC114 and I′-13: significantly better
BALB/c mice [2]; regardless of the cap initiators
  plasma EPO compared with reference samples (I′-1, CC114, CC413): outperformed each reference sample
[3]; 0.1 μg/well TransIT-EPO mRNA, 24 hrs
  translation (EPO secretion) compared to CC413: higher translation
[3]; 0.1 μg/well TransIT-formulated uRNA, 24 h, 48 h and 144 h
  EPO secretion, I′-6- vs CC114-capped uRNA: Increased secretion of EPO
[3]; 24 h
  level of secreted EPO compared to other caps (I′-9, I′-12, I′-16): increased level
[3]; m1Ψ-mRNA context
  translation compared to CC413: lower translation at later time points but in close to comparable translation
